Measurements taken from patent publication US20120035247A1, “RNA Interference Mediated Inhibition of Signal Transducer and Activator of Transcription 6 (STAT6) Gene Expression Using Short Interfering Nucleic Acid (siNA)” (Merck Sharp & Dohme Corp., priority 2009, published 2012).
[invAb] = inverted abasic unit; d = 2'-deoxy (DNA); m = 2'-O-methyl; r = 2'-OH (RNA); f = 2'-fluoro

Columns and labels:
STAT6 mRNA [1] = experiment: STAT6 siNA screen and dose response in human A549 cells, STAT6 mRNA by quantitative RT-PCR (Taqman); format: cell-based; settings: human A549 cells, 10 nM siNA, 24 hrs, normalized to GAPDH and non-targeting control, mean ± S.D., n = 3
Method: A549 (human; ATCC cat# CCL-185): Cells were cultured at 37° C. in the presence of 5% CO2 and grown in Ham's F12K medium with 2 mM L-glutamine adjusted to contain 1.5 g/L sodium bicarbonate and supplemented with fetal bovine serum at a final concentration of 10%, 100 μg/mL of streptomycin, and 100 U/mL penicillin.
(§1) Cells were plated in all wells of a tissue-culture treated, 96-well plate at a final count of 5000 cells/well in […], of the appropriate culture media. The cells were cultured for 24 hours after plating at 37° C. in the presence of 5% CO2.
(§2) After 24 hours, complexes containing siNA and RNAiMax were created as follows: A solution of RNAiMax diluted 33-fold in OPTI-MEM was prepared. In parallel, solutions of the siNAs for testing were prepared to a final concentration of 120 nM in OPTI-MEM. After incubation of RNAiMax/OPTI-MEM solution at room temperature for 5 min, an equal volume of the siNA solution and the RNAiMax solution were added together for each of the siNAs.
(§3) This solution was incubated at room temperature for 20 minutes. After incubation, 20 uL of the solution was added to each of the relevant wells. The final concentration of siNA in each well was 10 nM and the final volume of RNAiMax in each well was 0.3u1.
(§4) The time of incubation with the RNAiMax-siNA complexes was 24 hours and there was no change in media between transfection and harvesting, unless otherwise indicated.
(§5) RNA was extracted from a 96-well plate using the TaqMan® Gene Expression Cells-to-CT™ Kit (Cat#4399002) with a modified protocol. Briefly, a 60 uL (1 plate) or 110 uL (2 plates) of the Lysis Solution with DNase I was dispensed into each well of the Lysis Buffer Plate (twin.tec full skirt plate). The lysis buffer and stop plates were stored at 4° C. until the cells were washed.
(§6) The plate was spun at 1100 rpm for 5 minutes. The culture medium was aspirated and discarded from the wells of the culture plate. The lysis was performed automatically using a BioMek FX instrument and method. After the Biomek method was completed, the lysis plate was incubated for 2 min. at room temperature. The lysis plate can be stored for 2 hours at 4° C., or at −20° C. or −80° C. for two months.
(§7) Each well of the reverse transcription plate required 10 uL of 2× reverse transcriptase Buffer, luL of 20× reverse transcription enzyme and 2 uL of nuclease-free water. The reverse transcription master mix was prepared by mixing 2× reverse transcription buffer, 20× reverse transcription enzyme mix, and nuclease-free water. 13 uL of the reverse transcription master mix was dispensed into each well of the reverse transcription plate (semi-skirted). A separate reverse transcription plate was prepared for each cell plate. The plate was loaded onto a Biomek NX or Biomek FX Dual-96 and the Biomek method was run. The program is programmed to automatically added 7 uL of lysate from the cell lysis procedure described above into each well of the reverse transcription plate. The plate is sealed and spun on a centrifuge (1000 rpm for 30 seconds) to settle the contents to the bottom of the reverse transcription plate. The plate is placed in a thermocycler at 37° C. for 60 min, 95° C. for 5 min, and 4° C. until the plate is removed from the thermocycler. Upon removal, if not used immediately, the plate was frozen at −20° C.
(§8) A series of probes and primers were used to detect the various mRNA transcripts of the genes of 13-Actin (human cell line only), and of STATE and GAPDH in mouse and human cell lines. All Taqman probes and primers for the experiments here-in described were supplied as pre-validated sets by Applied Biosystems, Inc. (see Table 2).
The assays were performed on an ABI 7900 instrument, according to the manufacturer's instructions. A TaqMan Gene Expression Master Mix (provided in the Cells-to-CTT™, Applied Biosystems, Cat #4399002) was used. The PCR reactions were carried out at 50° C. for 2 min, 95° C. for 20 min followed by 40 cycles at 95° C. for 15 secs and 60° C. for 1 min. […]

STAT6 mRNA [2] = experiment: STAT6 siNA screen in mouse NIH 3T3 cells, STAT6 mRNA by quantitative RT-PCR (Taqman); format: cell-based; settings: mouse NIH3T3 cells, 10 nM siNA, 24 hrs, normalized to GAPDH and non-targeting control, n = 2
Method: NIH 3T3 (mouse; ATCC cat# CRL-1658): Cells were cultured at 37° C. in the presence of 5% CO2 and grown in Dulbecco's modified Eagle's medium (DMEM) with 4 mM L-glutamine adjusted to contain 1.5 g/L sodium bicarbonate and 4.5 g/L glucose and supplemented with fetal bovine serum at a final concentration of 10%, 100 μg/mL of streptomycin, and 100 U/mL penicillin.
as §1, §2, §3, §4, §5, §6, §7, §8
The assays were performed on an ABI 7900 instrument, according to the manufacturer's instructions. A TaqMan Gene Expression Master Mix (provided in the Cells-to-CTT™, Applied Biosystems, Cat #4399002) was used. […]

Row | Substance | % KD STAT6 (STAT6 mRNA [1]) | % KD STAT6 (STAT6 mRNA [2])
1 | 30016-DC: STAT6 siNA duplex; sense SEQ ID NO: 96, antisense SEQ ID NO: 97; target GCCAGAUAACCAUGCCCUU, site 2447 (sense GCCAGAUAACCAUGCCCUUTT; antisense AAGGGCAUGGUUAUCUGGCUU; sense: DNA at AGT, 2'-fluoro at CU, [invAb] at 5' end, 3' end, backbone not given here; antisense: sugars from the 5' end rrrmmfmfmmffmfffmmfmm, backbone not given here) [STAT6 siNA duplex; target GCCAGAUAACCAUGCCCUU, site 2447] | −20 ± 8.9% | 61.8 ± 2.3%
2 | 29994-DC: STAT6 siNA duplex; sense SEQ ID NO: 52, antisense SEQ ID NO: 53; target CUGAUCAUUGGCUUCAUCA, site 1880 (sense CUGAUCAUUGGCUUCAUCATT; antisense UGAUGAAGCCAAUGAUCAGUU; sense: DNA at AGT, 2'-fluoro at CU, [invAb] at 5' end, 3' end, backbone not given here; antisense: sugars from the 5' end rrrfmmmmffmmfmmffmmmm, backbone not given here) [STAT6 siNA duplex; target CUGAUCAUUGGCUUCAUCA, site 1880] | 1.9 ± 15.7% | −13.9 ± 4.1%
3 | 30021-DC: STAT6 siNA duplex; sense SEQ ID NO: 106, antisense SEQ ID NO: 107; target GUCAAUGGUCCUGGUCCAA, site 793 (sense GUCAAUGGUCCUGGUCCAATT; antisense UUGGACCAGGACCAUUGACUU; sense: DNA at AGT, 2'-fluoro at CU, [invAb] at 5' end, 3' end, backbone not given here; antisense: sugars from the 5' end rrrmmffmmmmffmffmmfmm, backbone not given here) [STAT6 siNA duplex; target GUCAAUGGUCCUGGUCCAA, site 793] | 17.2 ± 7.5% | −7 ± 7.2%
4 | 30011-DC: STAT6 siNA duplex; sense SEQ ID NO: 86, antisense SEQ ID NO: 87; target CCGAGAAUCUCUGCAGCAA, site 726 (sense CCGAGAAUCUCUGCAGCAATT; antisense UUGCUGCAGAGAUUCUCGGUU; sense: DNA at AGT, 2'-fluoro at CU, [invAb] at 5' end, 3' end, backbone not given here; antisense: sugars from the 5' end rrrffmfmmmmmfffffmmmm, backbone not given here) [STAT6 siNA duplex; target CCGAGAAUCUCUGCAGCAA, site 726] | 34.9 ± 11.5% | 53.4 ± 0.2%
5 | 30019-DC: STAT6 siNA duplex; sense SEQ ID NO: 102, antisense SEQ ID NO: 103; target GAAACAGCAUCUUGCCGCA, site 506 (sense GAAACAGCAUCUUGCCGCATT; antisense UGCGGCAAGAUGCUGUUUCUU; sense: DNA at AGT, 2'-fluoro at CU, [invAb] at 5' end, 3' end, backbone not given here; antisense: sugars from the 5' end rrrmmfmmmmfmffmffffmm, backbone not given here) [STAT6 siNA duplex; target …UCUUGCCGCA, site 506] | −9.5 ± 20.6% | 59.6 ± 7.3%
6 | 30023-DC: STAT6 siNA duplex; sense SEQ ID NO: 110, antisense SEQ ID NO: 111; target CACCUUAUGAUCUUGGAAU, site 2288 (sense CACCUUAUGAUCUUGGAAUTT; antisense AUUCCAAGAUCAUAAGGUGUU; sense: DNA at AGT, 2'-fluoro at CU, [invAb] at 5' end, 3' end, backbone not given here; antisense: sugars from the 5' end rrrffmmmmffmfmmmmfmmm, backbone not given here) [STAT6 siNA duplex; target CACCUUAUGAUCUUGGAAU, site 2288] | 15.3 ± 05.4% | −0.8 ± 3.8%
7 | 30010-DC: STAT6 siNA duplex; sense SEQ ID NO: 84, antisense SEQ ID NO: 85; target GGGACAAUGCCUUCUCUGA, site 1568 (sense GGGACAAUGCCUUCUCUGATT; antisense UCAGAGAAGGCAUUGUCCCUU; sense: sugars from the 5' end dddrfddfdffffffffdddd, [invAb] at 5' end, 3' end, backbone not given here; antisense: sugars from the 5' end rrrmmmmmmmfmffmffffmm, backbone not given here) [STAT6 siNA duplex; target GGGACAAUGCCUUCUCUGA, site 1568] | 6 ± 23.6% | −26.2 ± 0.2%
8 | 30015-DC: STAT6 siNA duplex; sense SEQ ID NO: 94, antisense SEQ ID NO: 95; target CUCAGAUGUGACUAUGGUA, site 2544 (sense CUCAGAUGUGACUAUGGUATT; antisense UACCAUAGUCACAUCUGAGUU; sense: DNA at AGT, 2'-fluoro at CU, [invAb] at 5' end, 3' end, backbone not given here; antisense: sugars from the 5' end rrrfmfmmffmfmfffmmmmm, backbone not given here) [STAT6 siNA duplex; target CUCAGAUGUGACUAUGGUA, site 2544] | 65.5 ± 7.6% | 81.6 ± 3.7%
9 | 30012-DC: STAT6 siNA duplex; sense SEQ ID NO: 88, antisense SEQ ID NO: 89; target CAUCGUGCAUGGUAACCAA, site 1521 (sense CAUCGUGCAUGGUAACCAATT; antisense UUGGUUACCAUGCACGAUGUU; sense: DNA at AGT, 2'-fluoro at CU, [invAb] at 5' end, 3' end, backbone not given here; antisense: sugars from the 5' end rrrmffmffmfmfmfmmfmmm, backbone not given here) [STAT6 siNA duplex; target CAUCGUGCAUGGUAACCAA, site 1521] | −13.7 ± 15.8% | 18 ± 3.2%
10 | 30007-DC: STAT6 siNA duplex; sense SEQ ID NO: 78, antisense SEQ ID NO: 79; target GGAAGUUCAGGCUCUGAGA, site 3048 (sense GGAAGUUCAGGCUCUGAGATT; antisense UCUCAGAGCCUGAACUUCCUU; sense: sugars from the 5' end d5 f3 d3 f4 d6, [invAb] at 5' end, 3' end, backbone not given here; antisense: sugars from the 5' end rrrfmmmmfffmmmfffffmm, backbone not given here) [STAT6 siNA duplex; target GGAAGUUCAGGCUCUGAGA, site 3048] | 59.8 ± 8.6% | 8.1 ± 0.8%
